Laboratory results from patent US4783402A, “Production of primary or secondary alcohol derivatives of phospholipids by the enzymatic technique” (Meito Sangyo Kabushiki Kaisha, priority 1983, dated 1988).

What was measured:
[1] = tested on: phospholipase DM derived from the Nocardiopsis strain (Nocardiopsis sp. No. 779, FERM-P No. 6133; BP 512); test: Influences of various substances on enzyme activity (choline oxidase method, egg-yolk lecithin substrate); type: biochemical; details: substance at 1 mM in the enzyme reaction system, added instead of the aqueous calcium chloride solution; lecithin emulsion, Tris-HCl pH 7.2, 37° C., 20 minutes
Experimental: (§1) The enzyme activity of the phospholipase DM utilized in the process of this invention is determined by measuring the amount of a base which is formed when the phospholipase DM acts on the substrate glycerophospholipid to decompose the ester linkage between phosphoric acid and the nitrogen-containing base. Unless otherwise indicated, the activity of phospholipase DM is measured by the choline oxidase method to be described hereinafter.
(§2) Distilled water (0.15 ml), 0.1 ml of 0.2M Tris-HCl buffer (pH 7.2) and 0.05 ml of 0.1M aqueous calcium chloride solution are mixed with 0.1 ml of 1% emulsion of purified lecithin from egg yolk (an emulsion of 0.1 g of lecithin, 1 ml of ethyl ether and 10 ml of distilled water obtained by ultrasonication). To the mixture is added 0.1 ml of an enzyme solution and reacted at 37° C. for 20 minutes. Then, 0.2 ml of 1M Tris-HCl buffer (pH 8.0) containing 50 mM disodium ethylenediamine tetraacetate, and immediately then, the mixture is boiled for 5 minutes, followed by completely stopping the reaction. Then, 4 ml of a solution obtained by dissolving a choline color-forming agent contained in a kit of a reagent for choline esterase measurement (produced by Nippon Shoji Co., Ltd.) in a color dissolving liquid is added, and reacted at 37° C. for 20 minutes. Then, the absorbance of the reaction solution at 500 nm is measured.
(§3) As a control, the absorbance of the product obtained by the same procedure as above except that an enzyme solution previously deactivated by heat is used.
(§4) The activity of the enzyme to liberate 1 micromole of choline per minute is defined as one unit.
(§5) In the method of measuring the activity of the enzyme described hereinabove, 0.05 ml of an aqueous solution of each of various substances is added instead of the aqueous calcium chloride solution so that its concentration in the enzyme reaction system becomes 1 mM. The activity of the enzyme is then measured. The activity of the enzyme at the time of adding water is taken as 100, and the relative activity of the enzyme is determined.

[2] = tested on: phospholipase DM derived from the Actinomadura strain (Actinomadura sp. No. 362, FERM-P No. 6132; BP 511); test: as above; type: biochemical; details: substance at 1 mM in the enzyme reaction system, added instead of the aqueous calcium chloride solution; lecithin emulsion, Tris-HCl pH 7.2, 37° C., 20 minutes
Experimental: as §1, §2, §3, §4, §5

Row | SMILES | influence on the activity of the enzyme (relative activity, activity at the time of adding water taken as 100) [1] | influence on the activity of the enzyme (relative activity, activity at the time of adding water taken as 100) [2]
1 | CC(C)O [isopropanol] | activating action | activating action
2 | CCO [ethanol] | activating action | activating action
3 | CC(C)(C)O [t-butanol] | activating action | activating action
